Columns and labels:
[1] = test system: 3D7 strain of P. falciparum; assay: Antimalarial activity, parasite growth in human erythrocytes (YOYO-1 flow cytometry), 3D7 strain; format: cell-based; details: Plasmodium falciparum, 3D7, Erythrocyte; 72 hr growth period, eight-point dose-response
Description: (§1) Cultures of 3D7 and W2 strains of P. falciparum parasites were grown in purified human erythrocytes and synchronous cultures were placed into 96-well plates containing test compounds. After a 72 hr growth period, cultures were fixed for 1 hr at room temperature in 1% paraformaldehyde and stained with 50 nM YOYO-1 for about 24 hr in the dark. Samples were analyzed on a Becton-Dickinson LSR2 fitted with a microplate reader. Uninfected erythrocytes were used to determine background autofluorescence. Parasite growth in each sample was determined relative to infected erythrocytes without test compound. “Eight-point dose-response curves were generated and EC50 values determined using GRAPHPAD PRISM® software”.

[2] = test system: W2 strain of P. falciparum; assay: Antimalarial activity, parasite growth in human erythrocytes (YOYO-1 flow cytometry), W2 strain; format: cell-based; details: Plasmodium falciparum, W2, Erythrocyte; 72 hr growth period, eight-point dose-response
Description: as §1

[3] = Fe(II) activation and drug release in vitro (LC/MS); format: physicochemical
Description: In a series of experiments, the compound of Example 1 (0.03 mM) was incubated with various amounts (0-100 equivalents) of a ferrous iron salt (ferrous bromide) in a 1:1 solution of acetonitrile and an aqueous buffer at ambient temperature. Either of two buffers were used in these studies: pH 5.5 sodium acetate buffer intended to mimic a lysosomal environment or pH 7.4 phosphate buffered saline. At various time points, a 10 μl sample of the incubation mixture was removed and analyzed by liquid chromatography/mass spectroscopy (LC/MS) to identify the expected products of iron-promoted degradation and drug release. A Waters Alliance/ZQ micromass LC/MS system and a 15 min method employing gradient elution with acetonitrile-water mobile phase (containing 0.1% formic acid) was employed. In the absence of ferrous iron salts, the compound of example 1 was stable for 48 hrs, showing no detectable chemical degradation by LC/MS spectroscopy. In the presence of ferrous bromide however, the compound of example 1 was rapidly (less than 1 hour) converted into the expected ketone (analogous to G, FIG. 2) resulting from iron-promoted degradation of the trioxolane ring. Also observed was a signal attributable to the released drug species, 2,5-dichloroaniline.

[4] = test system: W2 strain P. falciparum parasites; assay: Evaluation of drug release in cells: food vacuole phenotype in Giemsa-stained blood smears; format: cell-based, Plasmodium falciparum; details: 24 hrs, ring stage W2 parasites
Description: Cmpd 72 is the prodrug form of a parasite cysteine protease inhibitor, specifically an inhibitor of the proteases falcipain-2 and falcipain-3 from the malaria parasite Plasmodium falciparum. […] Thus, observation of the food vacuole phenotype upon treatment of cultured P. falciparum parasites with the protease inhibitor prodrug would constitute positive evidence for release of the free drug inside the parasite.
Synchronized W2 strain P. falciparum parasites (ring stage) were grown as described herein and incubated in the presence of test and control compounds for 24 hrs. Next, a blood smear was made, fixed with methanol, and stained with Giemsa, as known in the art. Parasites were then imaged at 100× magnification to identify the presence or absence of the food vacuole phenotype.

| SMILES | EC50 [1] [nM] | EC50 [2] [nM] | food vacuole phenotype (falcipain inhibition) ([4]; 1.1 uM, FIG. 3C-E) | further results |
| --- | --- | --- | --- | --- |
| O=C(CCC1(CCOC(=O)Nc2cc(Cl)ccc2Cl)OOC2(O1)C1CC3CC(C1)CC2C3)NCCN1CCOCC1 (stereo not drawn) [Cmpd 40, 2-(5,5-spiroadamantyl-3-(3-(2-morpholinoethylamino)-3-oxopropyl)-1,2,4-trioxolan-3-yl)ethyl-2,5-dichlorophenylcarbamate] | 16 | 24 |  | time of conversion into the expected ketone (iron-promoted degradation of the trioxolane ring) ([3]; 0.03 mM, in the presence of ferrous bromide, 1:1 acetonitrile and aqueous buffer, ambient temperature): less than 1 hour; stability in the absence of ferrous iron salts (no detectable chemical degradation by LC/MS) ([3]; 48 h, 0.03 mM): ≥ 48 h; release of drug species 2,5-dichloroaniline ([3]; in the presence of ferrous bromide, during the course of the experiment, LC/MS): the quantity of 2,5-dichloroaniline increased |
| CC(C)C[C@H](NC(=O)[C@H]1O[C@@H]1C(=O)O)C(=O)NCCCCN=C(N)N [E64, reference compound] |  |  |  | food vacuole phenotype (falcipain inhibition) ([4]; 3.3 uM, FIG. 3B): swollen, dark-staining food vacuole |
| O=C(CCC1(CCOC(=O)N(CCCNc2ccnc3cc(Cl)ccc23)Cc2ccco2)OOC2(O1)C1CC3CC(C1)CC2C3)NCCN1CCOCC1 (stereo not drawn) [Cmpd 48, 2-(5,5-spiroadamantyl-3-(3-(2-morpholinoethylamino)-3-oxopropyl)-1,2,4-trioxolan-3-yl)ethyl 3-(7-chloroquinolin-4-ylamino)propyl(furan-2-ylmethyl)carbamate] | 38 | 62 |  |  |
| O=C(CCC1(CCO)OOC2(O1)C1CC3CC(C1)CC2C3)NCCCN1CCCC1=O (stereo not drawn) [Cmpd 58, 3-(3-(2-hydroxyethyl)-5,5-spiroadamantyl-1,2,4-trioxolan-3-yl)-N-(3-(2-oxopyrrolidin-1-yl)propyl)propanamide] |  |  | does not produce the protease-inhibited phenotype |  |
| CC(C)(O)C[C@H](NC(=O)N1CCOCC1)C(=O)N[C@H](/C=C/S(=O)(=O)c1ccccc1)CCc1ccccc1 [N—((S)-4-hydroxy-4-methyl-1-oxo-1-((S,E)-5-phenyl-1-(phenylsulfonyl)pent-1-en-3-ylamino)pentan-2-yl)morpholine-4-carboxamide, reference compound] |  |  | swollen, dark-staining food vacuole |  |
| CN(Cc1ccccc1)C(=O)OCCC1(CCC(=O)NCCN2CCOCC2)OOC2(O1)C1CC3CC(C1)CC2C3 (stereo not drawn) [Cmpd 47, 2-(5,5-spiroadamantyl-3-(3-(2-morpholinoethylamino)-3-oxopropyl)-1,2,4-trioxolan-3-yl)ethyl benzyl(methyl)carbamate] | 16 | 15 |  |  |
| O=C(CCC1(CCOC(=O)N2CCN(c3ccccc3)CC2)OOC2(O1)C1CC3CC(C1)CC2C3)NCCN1CCOCC1 (stereo not drawn) [Cmpd 45, 2-(5,5-spiroadamantyl-3-(3-(2-morpholinoethylamino)-3-oxopropyl)-1,2,4-trioxolan-3-yl)ethyl 4-phenylpiperazine-1-carboxylate] | 9 | 4.9 |  |  |
| CC(C)(C[C@H](NC(=O)N1CCOCC1)C(=O)N[C@H](/C=C/S(=O)(=O)c1ccccc1)CCc1ccccc1)OC(=O)OCCC1(CCC(=O)NCCCN2CCCC2=O)OOC2(O1)C1CC3CC(C1)CC2C3 (stereo partly drawn) [Cmpd 72] |  |  | does produce the falcipain-inhibited phenotype |  |

Source: US8618096B2, “Prodrug compositions and methods for using the same in treating cancer and malaria” (The Regents of the University of California, priority 2008, dated 2013)
